This is an account of results in patent US8106203B2, “Assay methods using chemiluminescent detection of peroxidase” (Lumigen, Inc., priority 2001, dated 2012).

Series [1] concerns the target T1, HRP (Armoracia rusticana, UniProt P00433).
T1 sequence (P00433 31-338): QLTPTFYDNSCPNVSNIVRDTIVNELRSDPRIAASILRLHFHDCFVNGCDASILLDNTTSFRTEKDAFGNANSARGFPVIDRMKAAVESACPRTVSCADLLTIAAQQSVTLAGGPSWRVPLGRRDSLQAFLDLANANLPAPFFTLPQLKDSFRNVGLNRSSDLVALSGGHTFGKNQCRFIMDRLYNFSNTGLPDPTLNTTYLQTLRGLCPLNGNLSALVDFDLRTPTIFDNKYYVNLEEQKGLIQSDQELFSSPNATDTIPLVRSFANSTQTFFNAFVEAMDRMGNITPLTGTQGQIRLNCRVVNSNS
As to the kind of experiment: Comparison of signal intensity (Example 9): chemiluminescence on reaction of reagent with HRP. It is filed as biochemical, horseradish. The note with it: 5×10^−5 M compound, 0.01 M tris pH 8, 0.5 mM urea peroxide, 0.1 mM p-phenylphenol, 0.025% Tween 20; 3.5×10^−16 moles of HRP. On the procedure:
Reagent compositions comprising 0.01 M tris buffer, pH 8, 0.5 mM urea peroxide, 0.1 mM p-phenylphenol, […], 0.025% Tween 20, and 5×10^−5 M of each compound in the table below except the compound designated Ref. 1 were tested for production of chemiluminescence by reacting a 100 μL aliquot with 3.5×10^−16 moles of HRP. The reagent formulation for Ref. 1 comprised 0.05 M tris buffer, pH 8.6, 0.25 mM urea peroxide, 0.05 mM p-phenylphenol, 0.5 mM EDTA, 0.0125% Tween 20, and 3.3×10^−4 M Ref. 1. For comparison, data are provided for reference compounds 1 and 2.

The target of series [2] is T1, HRP. The experiment in a line: Comparison of signal intensity (Example 10): maximum signal with HRP. In kind it is biochemical, horseradish. To be noted: 3×10^−4 M compound, 0.025 M tris pH 8, 2.5 mM urea peroxide, 4 mM p-hydroxycinnamic acid; 3.5×10^−16 moles of HRP. On the procedure:
The maximum signal produced by each of compounds 14, and 27-29 was compared by reacting a 100 μL aliquot of reagent compositions comprising 0.025 M tris buffer, pH 8, 2.5 mM urea peroxide, 4 mM p-hydroxycinnamic acid, 0.5 mM EDTA, 0.1% Tween 20, and 3×10^−4 M of the test compound with 3.5×10^−16 moles of HRP. Each reagent reached maximum light intensity in about 1 minute.

The target of series [3] is T1, HRP. As to the kind of experiment: Chemiluminescent detection of HRP with compound 14. To be noted: 3×10^−4 M compound 14, pH 8.0, p-hydroxycinnamic acid. It is filed as biochemical, horseradish. Here is the method: Reagent compositions comprising 0.025 M tris buffer, pH 8.0, 2.5 mM urea peroxide, 4 mM p-hydroxycinnamic acid, 0.5 mM EDTA, 0.1% Tween 20 and 3×10^−4 M compound 14 were tested for production of chemiluminescence by reacting triplicate 100 μL aliquots with 10 μL of HRP in the range 1.4×10^−16 to 1.4×10^−20 moles. Light production ensued upon mixing and reached maximum intensity in about 1 min. The relation between chemiluminescence intensity and amount of enzyme is depicted in FIG. 1. For comparison, the relationship between S-B and amount of HRP is also shown for reference compound 1 having the formula:
The results for the reference compound were measured 15 minutes after addition of 10 μL of solutions of HRP containing between 1.4×10^−15 and 1.4×10^−19 moles of enzyme to 100 μL of the reagent comprising 0.055 M tris buffer, pH 8.6, 0.25 mM urea peroxide, 0.05 mM p-phenylphenol, 0.5 mM EDTA, 0.0125% Tween 20 and 3.3×10^−4 M of Ref 1.

Series [4] deals with T1, HRP. The experiment in a line: Chemiluminescent detection of HRP with compound 27. In kind it is biochemical, horseradish. The note with it: 3×10^−4 M compound 27, pH 8.0, p-hydroxycinnamic acid. Here is the method: Reagent compositions comprising 0.025 M tris buffer, pH 8.0, 2.5 mM urea peroxide, 4 mM p-hydroxycinnamic acid, 0.5 mM EDTA, 0.1% Tween 20 and 3×10^−4 M compound 27 were tested for production of chemiluminescence by reacting triplicate 100 μL aliquots with 10 μL of HRP in the range 1.4×10^−16 to 1.4×10^−20 moles. Light production ensued upon mixing and reached maximum intensity in about 1 min. The relation between chemiluminescence intensity at 1.5 min and amount of enzyme is depicted in FIG. 2 along with the results for Ref. compound 1 at 15 min as described above.

The target in series [5] is T1, HRP. The experiment in a line: Chemiluminescence time profile (Example 12). In kind it is biochemical, horseradish. To be noted: 3×10^−4 M compound 27, 3.5×10^−16 moles of HRP; compared with reagents of Example 11. On the procedure:
Reagent compositions comprising 0.025 M tris buffer, pH 8.0, 2.5 mM urea peroxide, 4 mM p-hydroxy-cinnamic acid, 0.5 mM EDTA, 0.1% Tween 20, and 3×10^−4 M compound 27 were tested for production of chemiluminescence by reacting a 100 μL aliquot with 3.5×10^−16 moles of HRP.

The target in series [6] is T1, HRP. The experiment in a line: Comparison of signal intensity (Example 17): maximum signal with HRP. To be noted: 1 mM test compound (Formulation 1.0); 3.5×10^−16 moles of HRP. In kind it is biochemical, horseradish. Here is the method:
The maximum signal produced by each of compounds 40-51 was compared by reacting a 100 μL aliquot of reagent compositions comprising 0.025 M tris buffer, pH 8, 2.5 mM urea peroxide, 4 mM p-hydroxycinnamic acid, 0.5 mM EDTA, 0.1% Tween 20, and either 1 mM, 0.3 mM, 0.15 mM or 0.05 mM of the test compound with 3.5×10^−16 moles of HRP. Each reagent reached maximum light intensity in 1-3 minutes.

Series [7] addresses T2, HRP-labeled antibody (Armoracia rusticana, UniProt P00433).
T2 sequence (P00433 31-338): T1 sequence (P00433 31-338)
The experiment in a line: Western blot of β-galactosidase on nitrocellulose membrane with compound 46. It is filed as biochemical. The note with it: 1 mM compound 46, nitrocellulose, time points up to 120 min. Here is the method: A western blot assay of β-galactosidase as the test antigen was conducted according to the procedure described in U. K. Laemmli, Nature (London), 227, 680 (1970) using a PVDF membrane. β-Galactosidase standards in the range of 5000-5 pg. The detection reagent containing Compound 1 permitted detection to be performed in under 1 minute.
(§1) Western blot assays of β-galactosidase were conducted according to Example 13 but using nitrocellulose membrane and a detection reagent comprising 0.025 M tris buffer, pH 8.0, 2.5 mM urea peroxide, 4 mM p-hydroxycinnamic acid, 0.5 mM EDTA, 0.1% Tween 20, and 1 mM compound 46.

The target of series [8] is T1, HRP. As to the kind of experiment: Stability of working solutions by solution assay. In kind it is physicochemical, horseradish. More on the design: key to Activity / Activity (Control): maximum chemiluminescence intensity (arbitrary light units). The note with it: for Activity (Control): fresh reagent from components stored at 4° C.; for Activity: stored working solution. On the procedure: Reagent stability of the working solutions of compound 53 and compound 46 was assessed by preparing the working solution by combining 50 μL aliquots of the two component solutions and storing the mixed solutions at 4° C. or room temperature. The working solution contained 0.025 M tris buffer, pH 8, 2.5 mM urea peroxide, 4 mm p-hydroxycinnamic acid, 0.5 mM EDTA, 0.1% Tween 20, and 0.05 mM of the substrate. Chemiluminescent assays were run with 3.5×10^−16 moles of HRP at 25° C. Maximum intensity results were compared to the values obtained with fresh reagent prepared from the individual components stored at 4° C. […] The composition containing compound 53 was unchanged after four months at 4° C., that containing compound 46 was unchanged after 9 months at 4° C.

Series [9] concerns the target T2, HRP-labeled antibody. As to the kind of experiment: Stability of working solution by western blot assay. To be noted: stored 1 year at 4° C. It is filed as physicochemical. Here is the method: as §1
A further measure of the long term stability of a working solution containing compound 46 was provided by serial western blot assays over a 1 year period according to the procedure in example 18. FIG. 9 depicts the performance comparison in the western blot protocol described above using fresh vs. 1 year old working solutions.
(In general: In western blotting, separated proteins are transferred to a membrane and probed.)

The next series has as its system peroxidase. The note with it: reacted with HRP; disclosed in U.S. Pat. No. 5,922,558; cited from earlier work.

On to `CSC(SCCCS(=O)(=O)[O-])=C1c2ccccc2N(c2ccccc2)c2ccccc21.[Na+]` [Compound 14], for which the figures for the Signal/Background at HRP [1] and at HRP [2] were 688 and 2491, respectively. The “time to reach maximum intensity” value at HRP [3] was “about 1 min”.
Turning to `CSC(SCCCS(=O)(=O)[O-])=C1c2ccccc2N(Cc2ccccc2)c2ccccc21.[Na+]` [Compound 27], the Signal/Background on HRP [1] amounted to 533; on HRP [2], 6933. For the same compound, the “time to reach maximum intensity” value at HRP [4] is on record as “about 1 min”. Further, the “relative chemiluminescence time profile” value at HRP [5] was “rapid generation of chemiluminescence and higher signal level”.
Take `O=S(=O)([O-])CCCOC1CSC(=C2c3ccccc3N(c3ccccc3)c3ccccc32)SC1.[Na+]` (stereo not shown) [Compound 46]: on HRP [6], the Signal/Background was determined as 13000. The “detection of β-gal” value on HRP-labeled antibody [7] is recorded as “excellent sensitivity”. Also, the “% Rel. Activity (Control)” value is 101.6% on HRP [8] (2 months); 100.2% at HRP [8] (3.5 months); 100.0% on HRP [8] (4 months); 97.0% on HRP [8] (6 months); 99.3% on HRP [8] (9 months); 90.9% at HRP [8] (12 months). Besides, the “working solution composition after storage” value at HRP [8] (9 months at 4° C.) is listed as “unchanged”. Besides, the “Activity (Control)” value at HRP [8] (2 months) is on record as 610; on HRP [8] (3.5 months) it was 613; at HRP [8] (4 months), 600; on HRP [8] (6 months) it was 660; at HRP [8] (9 months), 720; at HRP [8] (12 months), 660. For the same compound, the Activity is 620 on HRP [8] (2 months); 614 at HRP [8] (3.5 months); 600 on HRP [8] (4 months); 640 on HRP [8] (6 months); 715 at HRP [8] (9 months); 600 on HRP [8] (12 months). Also, the “reagent performance on storage of working solution” value at HRP [8] (up to three weeks at room temperature, 0.05 mM substrate) is given as “no deterioration of reagent performance”. On HRP-labeled antibody [9], the “western blot performance, fresh vs. 1 year old working solution” value is “no diminution in blotting assay sensitivity”.
Regarding `COC(Sc1ccccc1)=C1c2ccccc2N(C)c2ccccc21` [drawing 18], in the series on peroxidase, the “time to reach maximum chemiluminescence intensity” value was 7 min.
